Test results published in publication PMC9019904, “AD Informer Set: Chemical tools to facilitate Alzheimer's disease drug discovery” (Alzheimer's & Dementia : Translational Research & Clinical …, 2022).
≈ marks a conversion by molar mass, not a printed value.

Columns and labels:
[1] = system: BV2 (mouse microglia) cell line; assay: pHrodo-myelin phagocytosis/cell viability high content imaging assay: phagocytosis signal; type: cell-based; details: for Stimulation of mouse microglial phagocytosis at 10 μM (>150% control): BV2 cells
Summary of the method: (§1)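 High content imaging, roughly 22 hours post pHrodo-myelin addition, recorded phagocytosis signal alongside viability in microglial lines BV2 (mouse) and HMC3 (human). Apoptosis tracked through intensity rise (early) and fall (later) among three extracted measurements.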

cellular system = details: published cellular activity at 10 μM; cited from earlier work
[2] = system: HMC3 (human microglia) cell line; assay: pHrodo-myelin phagocytosis/cell viability high content imaging assay: phagocytosis signal; type: cell-based
Summary of the method: as §1

[3] = system: BV2 (mouse microglia) cell line; assay: pHrodo-myelin phagocytosis/cell viability high content imaging assay: viability (cell count, nuclear area, nuclear intensity)
Summary of the method: (§2)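 Duplicate single-point screen at 10 μM over 48 h, combined with pHrodo-myelin phagocytosis during the last 20 h. Cytotoxicity is taken from imaged cell counts and nuclear intensity changes, normalized to untreated wells as % control.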

[4] = system: HMC3 (human microglia) cell line; assay: as above
Summary of the method: as §2

[5] = Kinetic solubility in aqueous buffer pH 7.4 by total chemiluminescent nitrogen determination (Analiza); details: aqueous buffer, pH 7.4, aqueous buffer, kinetic from dmso stock
[6] = BV2, 10 μM, cell count <70% control
[7] = HMC3, 10 μM, cell count <70% control

O=S(=O)(NC1CCNCC1)c1cc(S(=O)(=O)c2ccccc2)ccc1C(F)(F)F [WAY-316606]
Stimulation of mouse microglial phagocytosis at 10 μM (>150% control) ([1]; 10 μM): Y (The compound was found to stimulate phagocytosis (response threshold: >150% control) when murine immortalized microglial cells were dosed at 10 μM (Y: yes)) | Reported as cell active (<10 μM) (cellular system): Y (Published data supports that the compound is active in a cellular system when dosed at 10 μM (Y/N))

Cl.N=C(CCl)NCCC[C@H](NC(=O)c1ccccc1)C(N)=O [Cl-amidine]
Inhibition of human microglial phagocytosis at 10 μM (<70% control) ([2]; HMC3 cells, 10 μM): Y (The compound was found to inhibit phagocytosis (response threshold: <70% control) when human immortalized microglial cells were dosed at 10 μM (Y: yes)) | Reported as cell active (<10 μM) (cellular system): Y (Published data supports that the compound is active in a cellular system when dosed at 10 μM (Y/N))

CNC(=O)c1cccc(-c2ccc3c(N4CCOC[C@@H]4C)nc(N4CCOC[C@@H]4C)nc3n2)c1 [Vistusertib]
Mouse microglial cytotoxicity at 10 μM (<70% control) ([3]; BV2 cells, 10 μM, cell count <70% control): Y (The compound was found to be cytotoxic (cell count threshold: <70% control) when murine immortalized microglial cells were dosed at 10 μM (Y: yes)) | Stimulation of mouse microglial phagocytosis at 10 μM (>150% control) ([1]; 10 μM): Y (The compound was found to stimulate phagocytosis (response threshold: >150% control) when murine immortalized microglial cells were dosed at 10 μM (Y: yes)) | Reported as cell active (<10 μM) (cellular system): Y (Published data supports that the compound is active in a cellular system when dosed at 10 μM (Y/N))

CCCCCCCCCCCCCCCCOCC(COCC(F)(F)F)OP(=O)([O-])OC.[Li+] (stereo not drawn) [MJ-33 (lithium salt)]
Inhibition of human microglial phagocytosis at 10 μM (<70% control) ([2]; HMC3 cells, 10 μM): Y (The compound was found to inhibit phagocytosis (response threshold: <70% control) when human immortalized microglial cells were dosed at 10 μM (Y: yes)) | Reported as cell active (<10 μM) (cellular system): Y (Published data supports that the compound is active in a cellular system when dosed at 10 μM (Y/N))

Cc1cc2c(cc1-c1cc(/C=C\C(=O)O)ccc1O)C(C)(C)CCC2(C)C [CD3254]
Reported as cell active (<10 μM) (cellular system): Y (Published data supports that the compound is active in a cellular system when dosed at 10 μM (Y/N))

C=C(c1ccc(C(=O)O)cc1)c1cc2c(cc1C)C(C)(C)CCC2(C)C [Bexarotene]
Reported as cell active (<10 μM) (cellular system): Y (Published data supports that the compound is active in a cellular system when dosed at 10 μM (Y/N))

Cc1cc(OCc2nnc(SC3CCCC3)n2-c2cccnc2)ccc1-c1ccc(S(C)(=O)=O)cc1 [NMS-873]
Mouse microglial cytotoxicity at 10 μM (<70% control) [3, 6]: Y (The compound was found to be cytotoxic (cell count threshold: <70% control) when murine immortalized microglial cells were dosed at 10 μM (Y: yes)) | Human microglial cytotoxicity at 10 μM (<70% control) [4, 7]: Y (The compound was found to be cytotoxic (cell count threshold: <70% control) when human immortalized microglial cells were dosed at 10 μM (Y: yes)) | Inhibition of mouse microglial phagocytosis at 10 μM (<70% control) ([1]; BV2, 10 μM): Y (The compound was found to inhibit phagocytosis (response threshold: <70% control) when murine immortalized microglial cells were dosed at 10 μM (Y: yes)) | Inhibition of human microglial phagocytosis at 10 μM (<70% control) ([2]; HMC3, 10 μM): Y (The compound was found to inhibit phagocytosis (response threshold: <70% control) when human immortalized microglial cells were dosed at 10 μM (Y: yes)) | solubility kinetic [5]: 3.8 µM (≈ 1.98 µg/mL)

COc1cccc2c(NCc3ccccc3)nc(-n3c(N)nc4ccccc43)nc12 [ML 240]
Mouse microglial cytotoxicity at 10 μM (<70% control) [3, 6]: Y (The compound was found to be cytotoxic (cell count threshold: <70% control) when murine immortalized microglial cells were dosed at 10 μM (Y: yes)) | Human microglial cytotoxicity at 10 μM (<70% control) [4, 7]: Y (The compound was found to be cytotoxic (cell count threshold: <70% control) when human immortalized microglial cells were dosed at 10 μM (Y: yes)) | Inhibition of mouse microglial phagocytosis at 10 μM (<70% control) ([1]; BV2, 10 μM): Y (The compound was found to inhibit phagocytosis (response threshold: <70% control) when murine immortalized microglial cells were dosed at 10 μM (Y: yes)) | Inhibition of human microglial phagocytosis at 10 μM (<70% control) ([2]; HMC3, 10 μM): Y (The compound was found to inhibit phagocytosis (response threshold: <70% control) when human immortalized microglial cells were dosed at 10 μM (Y: yes)) | solubility kinetic [5]: < 0.4 µM

Cc1cc(Nc2ncc(Cl)c(Nc3ccccc3S(=O)(=O)C(C)C)n2)c(OC(C)C)cc1C1CCNCC1 [Ceritinib]
Mouse microglial cytotoxicity at 10 μM (<70% control) ([3]; BV2, 10 μM): Y (The compound was found to be cytotoxic (cell count threshold: <70% control) when murine immortalized microglial cells were dosed at 10 μM (Y: yes)) | Human microglial cytotoxicity at 10 μM (<70% control) ([4]; HMC3, 10 μM): Y (The compound was found to be cytotoxic (cell count threshold: <70% control) when human immortalized microglial cells were dosed at 10 μM (Y: yes)) | Inhibition of mouse microglial phagocytosis at 10 μM (<70% control) ([1]; BV2, 10 μM): Y (The compound was found to inhibit phagocytosis (response threshold: <70% control) when murine immortalized microglial cells were dosed at 10 μM (Y: yes)) | Inhibition of human microglial phagocytosis at 10 μM (<70% control) ([2]; HMC3, 10 μM): Y (The compound was found to inhibit phagocytosis (response threshold: <70% control) when human immortalized microglial cells were dosed at 10 μM (Y: yes)) | solubility kinetic [5]: 25.1 µM (≈ 14 µg/mL)

CC1(COc2ccc3c(c2)ncn3-c2ccc3cccc(N4CCC(N)CC4)c3n2)COC1 [Crenolanib]
Mouse microglial cytotoxicity at 10 μM (<70% control) ([3]; 10 μM, BV2): Y (The compound was found to be cytotoxic (cell count threshold: <70% control) when murine immortalized microglial cells were dosed at 10 μM (Y: yes)) | Human microglial cytotoxicity at 10 μM (<70% control) ([4]; 10 μM, HMC3): Y (The compound was found to be cytotoxic (cell count threshold: <70% control) when human immortalized microglial cells were dosed at 10 μM (Y: yes)) | Inhibition of mouse microglial phagocytosis at 10 μM (<70% control) ([1]; 10 μM, BV2): Y (The compound was found to inhibit phagocytosis (response threshold: <70% control) when murine immortalized microglial cells were dosed at 10 μM (Y: yes)) | Inhibition of human microglial phagocytosis at 10 μM (<70% control) ([2]; 10 μM, HMC3): Y (The compound was found to inhibit phagocytosis (response threshold: <70% control) when human immortalized microglial cells were dosed at 10 μM (Y: yes)) | solubility kinetic [5]: 115 µM (≈ 51.1 µg/mL)

Cn1nccc1Nc1nccc(-c2ccn([C@H](CO)c3ccc(Cl)c(F)c3)c(=O)c2)n1 [Ravoxertinib (GDC0994)]
Mouse microglial cytotoxicity at 10 μM (<70% control) ([3]; 10 μM, BV2): Y (The compound was found to be cytotoxic (cell count threshold: <70% control) when murine immortalized microglial cells were dosed at 10 μM (Y: yes)) | Human microglial cytotoxicity at 10 μM (<70% control) ([4]; 10 μM, HMC3): Y (The compound was found to be cytotoxic (cell count threshold: <70% control) when human immortalized microglial cells were dosed at 10 μM (Y: yes)) | Inhibition of mouse microglial phagocytosis at 10 μM (<70% control) ([1]; 10 μM, BV2): Y (The compound was found to inhibit phagocytosis (response threshold: <70% control) when murine immortalized microglial cells were dosed at 10 μM (Y: yes)) | Inhibition of human microglial phagocytosis at 10 μM (<70% control) ([2]; 10 μM, HMC3): Y (The compound was found to inhibit phagocytosis (response threshold: <70% control) when human immortalized microglial cells were dosed at 10 μM (Y: yes)) | solubility kinetic [5]: 3.8 µM (≈ 1.68 µg/mL)

Cc1cc2c(cc1C(=O)c1ccc(C(=O)O)cc1)C(C)(C)CCC2(C)C [LG-100064]
Reported as cell active (<10 μM) (cellular system): Y (Published data supports that the compound is active in a cellular system when dosed at 10 μM (Y/N))

CCCCCOc1cc2c(cc1-c1cc(/C=C/C(=O)O)ccc1O)C(C)(C)CCC2(C)C [UVI 3003]
Reported as cell active (<10 μM) (cellular system): Y (Published data supports that the compound is active in a cellular system when dosed at 10 μM (Y/N))

CC(C)(C(=O)O)c1ccc(C(O)CCCN2CCC(C(O)(c3ccccc3)c3ccccc3)CC2)cc1 (stereo not drawn) [Fexofenadine]
Reported as cell active (<10 μM) (cellular system): Y (Published data supports that the compound is active in a cellular system when dosed at 10 μM (Y/N))
